# Laboratory results from patent US6818446B2, “Compositions and methods for the analysis of mucin gene expression and identification of drugs having the ability to inhibit mucin gene expression” (The Regents of the University of California, priority 2001, dated 2004).
# Entries after “also recorded” stand apart in the source; their conditions may differ.
# What was measured:
# MUC5B promoter [1] = test: MUC5B-b2 luciferase reporter activity in primary TBE cultures derived from transgenic mice; assay type: cell-based; conditions: transgenic mouse TBE cells; cytokine 10 ng/ml, 7 days
# Protocol: The transgenic mice described in EXAMPLE 9 were used to isolate TBE cells, which were maintained in culture. The TBE cells were maintained in three culture conditions, which were control (no supplement), with interleukin-6 (IL-6) at a concentration of 10 ng/ml or with IL-17 at a concentration of 10 ng/ml. The cells were maintained in the presence of the cytokines for 7 days, harvested and cell extracts were prepared as described in EXAMPLE 8. The luciferase activity in each cell extract was determined, and normalized for total protein concentration of the extract samples.
# MUC5B promoter [2] = test: Luciferase activity in stably transfected HBE1 cells carrying the MUC5B promoter reporter; assay type: cell-based, human; conditions: cytokine 10 ng/ml
# Protocol: Experimental—The established cell line HBE1 was cultured in 35 mm dishes and grown to 60-80% confluence. These cells were cotransfected with either MUC-5B reporter construct and a second plasmid encoding the neomycin-resistance (neo) selectable marker. The chimeric reporter plasmids used in the transfections were purified using QIAGEN® plasmid isolation kits, and the cotransfections were done using Roche FuGENE 6™ transfection reagent (Roche Molecular Biochemicals, Indianapolis, Ind.) according to the manufacturer's instructions. In these transfections, 2.5 μg of MUC5B reporter plasmid DNA and 0.5 μg of the neomycin resistance marker plasmid per 35 mm culture dish were used for each transfection.
# Following the cotransfection, cells were cultured for an additional 48 to 72 hours. At this time, the medium was replaced with fresh medium containing the neomycin analogue G-418 at a concentration of 100 μg/ml. The selection was maintained for approximately 21 days, at which time clones of resistant transfected cells were replated and maintained as continuous lines. Cell extracts were prepared and luciferase activity quantitated exactly as described in EXAMPLE 8, with the exception that cell extracts were normalized for total protein content, and not β-galactosidase activity. In addition, these cells were cultured in the absence or presence of IL-6 (10 ng/ml) or IL-17 (10 ng/ml).
# MUC5B-b2 promoter = test: Effect of culture conditions and retinoic acid on MUC5B-b2 promoter-reporter activity in primary human TBE cells; assay type: cell-based; conditions: retinoic acid 30 nM
# Protocol: For studying the effects of culture conditions on the promoter-reporter gene activity, primary human TBE cultures were grown in 60 mm dishes and transfected with 1 μg of MUC5B promoter-luciferase construct DNA and 0.5 μg pSV-β-gal expression vector. One day following the transfection, cultures were passaged into either 35 mm tissue culture dishes or into collagen gel-coated 25 mm Transwell™ chambers (Coming-COSTAR Catalog Number 3506). Additionally, the cultures were maintained either in the absence or presence of supplemental all-trans-retinoic acid (30 nM). For Transwell™ cultures, chambers were maintained in an air-liquid interface for an additional three days. Cell extracts were prepared and luciferase and β-galactosidase activities were analyzed as described above. For each transfection, relative luciferase activity was expressed after normalization for β-galactosidase activity. The results are presented as a mean of relative activities from at least triplicate dishes, and data is collected from at least three independent experiments. Activity is expressed as units of luciferase activity per unit of β-gal activity (units/beta-gal). […] Results are expressed as “fold increase” of luciferase activity, comparing RA-treated and RA-untreated cultures, where the activity of the RA untreated culture is set to 1. […]
# MUC5B message = test: Northern blot analysis of MUC5B message in primary TBE cell cultures; conditions: primary human TBE cells, presence vs absence of 30 nM retinoic acid
Molecule,MUC5B promoter activity (luciferase normalized for total protein) vs control without interleukin (MUC5B promoter [1]),luciferase reporter activity in presence vs absence of cytokine (MUC5B promoter [2]),"MUC5B-b2 reporter gene activity, RA-treated vs RA-untreated, tissue culture dishes (TC) (MUC5B-b2 promoter; TC)","MUC5B-b2 reporter gene activity, fold increase RA-treated vs RA-untreated, BICG conditions (MUC5B-b2 promoter; collagen gel-coated Transwell chambers, air-liquid interface)",levels of MUC5B message in BI and BICG cultures (MUC5B message; Transwell chambers (BI) or collagen gel-coated Transwell chambers (BICG)),levels of MUC5B message in TC and CG cultures (MUC5B message; tissue culture dishes (TC) or collagen gel coated dishes (CG))
IL-6: pro-inflammatory cytokine interleukin-6 added to cell cultures,significant upregulation,strongly induced; also recorded: upregulated,–,–,–,–
IL-17: pro-inflammatory cytokine IL-17 added to cell cultures,significant upregulation,strongly induced; also recorded: upregulated,–,–,–,–
"CC1=C(/C=C/C(C)=C/C=C/C(C)=C/C(=O)O)C(C)(C)CCC1 [retinoic acid, all-trans-retinoic acid]",–,–,not affected,five-fold,greatly enhanced,unaffected
